Data set [1] concerns the target T1, TRF1TRFH (Homo sapiens, UniProt P54274).
T1 construct: encoding residues 47–268, UniProt identifier P54274-1; His6-MBP (TEV-cleavable) (N, cleaved yes); made in house; host or cells: E. coli BL21-CodonPlus(DE3)-RIL
T1 sequence (P54274 47-268): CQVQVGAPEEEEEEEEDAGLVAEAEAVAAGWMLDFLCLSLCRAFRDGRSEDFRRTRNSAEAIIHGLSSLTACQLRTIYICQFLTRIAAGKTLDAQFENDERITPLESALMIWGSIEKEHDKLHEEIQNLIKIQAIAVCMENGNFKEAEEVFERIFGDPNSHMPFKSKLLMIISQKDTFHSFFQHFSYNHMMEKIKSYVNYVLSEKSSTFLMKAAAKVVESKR
Put plainly: LO-NMR CPMG assay (relaxation-edited), singletons. It is filed as binding. Particulars: single experiment; for CPMG reduction: average peak intensity reduction on addition of TRF1TRFH, 250 µM ligand, 20 µM protein; for CPMG recovery: net recovery of peak intensity on addition of TIN2TBM peptide (40 µM) to compound plus protein. How it is done: We next used a LO-NMR CPMG assay to orthogonally validate XChem hits in solution, aiming to eliminate false positives and rank hit matter for follow-up studies. Compounds were tested as singletons and prepared in two samples containing either compound alone (sample 1) or compound + TRF1TRFH (sample 2).
The fragment screen by LO-NMR was carried out using conditions described previously, with some modifications. Fragments were dispensed in triplicate into a 384-well plate using an Echo 550 liquid handler to give a final ligand concentration of 250 µM (total sample volume of 40 µL). 40 µL of TRF1TRFH protein (in NMR buffer; 20 µM final protein concentration in the assay) were added to the ‘protein’ samples; 40 µL of TRF1TRFH protein and TIN2TBM peptide (21-mer, Ac-[…]-CONH2; 40 µM final concentration in the assay) were both added to the ‘competitor’ samples; 40 µL NMR buffer were added to the ‘compound-only’ samples. Solutions were transferred to 1.7-mm NMR tubes using a Bruker SamplePro Tube robotics system. ^1H NMR spectra were recorded on a Bruker AVIII 500 MHz spectrometer at 298 K, equipped with a 1.7-mm TXI probe, with samples in 1.7-mm SampleJET NMR tubes (Bruker). DMSO and water signals were dampened. A relaxation spin filter was applied at 400 ms. Data were processed using Bruker Topspin 4.0. Lines were broadened with LB = 3.0, and the baseline was corrected between 6.0 and 10.0 ppm.
The data were then analysed using the MNova Screen software. Only peaks between 5.5 and 9.5 ppm were considered. Peaks with a height of < 5% maximum peak height within the region of interest were considered noise, and the minimum matched peak level was set at > 51%. The relative peak intensity change (I) was calculated for all peaks in the 5.5–9.5 ppm region, for each compound, as described previously. The average integral for all peaks between 6.0 and 10.0 ppm was calculated, and the differences between compound-only, compound-plus-protein, and compound-plus-protein-plus-competitor samples were compared. The net recovery was calculated by subtracting the reduction in peak integral of the compound-plus-protein samples from the compound-plus-protein-plus-competitor samples.
For hit validation, relaxation-edited LO-NMR experiments were repeated as described above on single compounds instead of fragment cocktails.

Data set [2] is described as follows: Fragment solubility assay (quantitative 1H NMR). The class given is physicochemical. Particulars: NMR buffer, overnight incubation, 1H NMR quantified against 1 mM caffeine standard. How it is done: Aqueous solubility test samples were prepared by adding 3.6 µL compound (50 mM stock in 100% DMSO-d6) to 176.4 µL NMR buffer in a microcentrifuge tube. The samples were incubated overnight and transferred to a 3-mm NMR tube (Bruker, Part No. Z112272). ^1H NMR spectra were recorded, with the DMSO and water signals dampened. 1 mM caffeine (Sigma, C1778 in PBS (pH 7.4) with 1% DMSO-d6) was used as a standard to quantify the ligand signals and determine the concentration of samples.
NMR data were collected on a Bruker Avance Neo 600-MHz spectrometer equipped with a 5 mm TCI-CryoProbe. The ^1H spectrum was referenced to the internal deuterated solvent. The operating frequency for ^1H was 600 MHz. All NMR data were acquired at the temperature of 298 K. All data were acquired and processed using Bruker Topspin 4.0. The quantitative ^1H-NMR spectrum was acquired using a Bruker standard 1D lc1pngppsf2 pulse sequence with 32 scans. The sweep width was 6.2 ppm with O1P set to 8.8 ppm, and the FID contained 16k time-domain data points. Relaxation delay was set to 20 s. Water signal was suppressed.

Data set [3] concerns the target T1, TRF1TRFH. Put plainly: LO-NMR R2KD assay. The class given is binding. The following applies: for pKd: global KD shared across 1H NMR peaks, single experiment, 95% CI in parentheses, 2 µM TRF1TRFH. How it is done:
Recent work by Liu and colleagues introduced a novel LO-NMR method that can be used to quantitatively determine the dissociation constant (KD) of a ligand for a protein from measured R2 values of ligand nuclei at a range of ligand concentrations.
The R2KD assay was carried out as described by Liu et al.[40]. A Bruker SamplePro liquid handler was used to prepare 10 samples: 8 samples containing an increasing ligand concentration from 50 to 500 µM whilst maintaining a constant TRF1TRFH concentration (2 µM final); and two samples containing ligand only at 200 µM and 400 µM. All ten samples were prepared from stock solutions of ligand, DMSO, protein and buffer alone using the Bruker SamplePro liquid handler prior to transfer to 3-mm NMR tubes.
NMR data were collected at 298 K on a Bruker Avance Neo 600-MHz spectrometer using the Bruker Topspin 4.0 software. T2 relaxation experiments were performed using the standard Bruker CPMG pulse program with Excitation Sculpting incorporated to suppress water signal. The spin-echo period (delay-180°-delay) was set to 1 ms (d20 = 500 µs), and the relaxation delay (d1) was set to 10 s. The sudo-2D experiment contained nine slices with the spin echo period repeated at the following times: 4, 20, 100, 200, 300, 500, 700, 1000, and 2000 ms. T2 relaxation data were processed using the MestReNova 14.1 data analysis module to obtain integrals of individual[1]H-NMR signals, which were used to calculate R2 with the equation I = I0e^(−tR2). GraphPad Prism 9.0.0 was used to fit R2 values of individual compound peaks to obtain an overall (shared) KD value from all peaks of the compound.

The target in data set [4] is T2, TRF1TRFH:TIN2-FAM interaction (Homo sapiens, UniProt P54274).
T2 construct: encoding residues 47–268, UniProt identifier P54274-1; His6-MBP (TEV-cleavable) (N, cleaved yes); made in house; host or cells: E. coli BL21-CodonPlus(DE3)-RIL (TRF1TRFH); probe peptide from Pepceuticals
T2 sequence (P54274 47-268): T1 sequence (P54274 47-268)
Put plainly: Fluorescence polarisation (FP) competition assay, TIN2-FAM displacement. The following applies: 0.6 µM TRF1TRFH, 25 nM TIN2-FAM; mean of three independent experiments, 95% CI in parentheses. The class given is binding. The protocol:
To complement the biophysical R2KD assay, we developed a fluorescence polarisation (FP) competition assay based on a TIN2TBM peptide labelled with an N-terminal 5(6)-carboxyfluorescein (6-FAM) fluorophore. […] The NMR hit analogues were then titrated against constant concentrations of TRF1TRFH and TIN2-FAM (0.6 µM and 25 nM, respectively).
A TIN2TBM peptide was obtained from Pepceuticals with a 5(6)-carboxyfluorescein (FAM) fluorophore added to the N-terminus for fluorescence studies. To determine the assay window for the FP assay, the TIN2-FAM probe was prepared as a 16-µM stock in aqueous buffer and titrated from 0 to 400 nM against either a constant concentration of TRF1TRFH (0.5 µM in FP buffer) or FP buffer alone (25 mM HEPES-NaOH pH 7.5, 100 mM NaCl, 1 mM TCEP, 0.05% w/v CHAPS). Samples were prepared to a final volume of 10 µL in Packard Proxiplate 384 F plus plates; plates were incubated in darkness at room temperature for 1 h prior to measuring fluorescence intensities and calculating FP values, using a BMG Labtech PHERAstar FSX plate reader with an FP 485 520 520 optic module. A settling time of 0.3 s was used, and the number of flashes was set to 200 for FP measurements. For each plate, a target mP of 35 was set and the gain adjusted on the TIN2-FAM probe control well minus protein.
For the FP competition assay, the unlabelled compounds (from 50-mM DMSO stocks) were first dispensed in duplicate into wells of a Proxiplate 384 F Plus plate using an Echo 550 acoustic liquid handler to give a 13-point concentration range from 0.2 to 500 µM. Wells were then backfilled to 250 nL with DMSO before the addition of 5 µL of 2x TRF1TRFH (0.6 µM final concentration) and 4.75 µL 2x TIN2-FAM (25 nM final concentration). Plates were spun and sealed prior to incubation for 1 h in darkness. FP measurements were then carried out as described above.

pIC50, pKd: −log10 of the molar value.

At TRF1TRFH [1], `O=C(NC1CC1)c1cnn2cccnc12` [Compound 1] yielded a CPMG reduction of 13%.
Same read-out and setting: to `CN(C)C(=O)COc1cccc(F)c1` [Compound 6] belongs 12%; to `NS(=O)(=O)c1ccccc1OC(F)F` [Compound 15], 0%; to `c1ccc(-c2noc(C3CCC3)n2)nc1` [Compound 16], 22%.
Usually pKd stands for the Kd on a negative log10 scale, so that one unit is a factor of ten. Regarding `CCOc1ccc(S(=O)(=O)O)c2ccccc12` [Compound 27], in data set [2], the “Kin. Sol.” value amounted to 810 µM. The negative-log Kd (pKd) on TRF1TRFH [3] was 3.55. In addition, at TRF1TRFH [1], the CPMG reduction is listed as 96% and the CPMG recovery is recorded as 49%.
`COc1ccc(S(=O)(=O)O)c2ccccc12` [Compound 28, 4-methoxy-1-naphthalenesulfonic acid]: the “Kin. Sol.” value in data set [2] amounted to 610 µM. Besides, at TRF1TRFH [1], the CPMG reduction is 87% and the CPMG recovery was 22%.
On to `O=S(=O)(O)c1ccc(O)c2ccccc12` [Compound 29, 1-naphthol-4-sulfonic acid], for which, in data set [2], the “Kin. Sol.” value came to 840 µM. Also, at TRF1TRFH [3], the pKd is less than 3.00.
`CC(C)Oc1ccc(S(=O)(=O)[O-])c2ccccc12.[Na+]` [Compound 30]: in data set [2], the “Kin. Sol.” value was 860 µM. The negative-log Kd (pKd) at TRF1TRFH [3] was less than 3.00. For the same compound, on TRF1TRFH [1], the CPMG reduction is recorded as 83% and the CPMG recovery is listed as 4%.
The pIC50 is −log10 of the IC50, conventionally taken in molar units. As to `O=S(=O)(O)c1ccc(OCc2ccccc2)c2ccccc12` [Compound 32], the “Kin. Sol.” value in data set [2] is 850 µM. Also, the “increase in affinity relative to ethoxy parent 27” value at TRF1TRFH [3] (R2KD assay) was “five-fold increase in affinity”. Besides, the pKd on TRF1TRFH [3] is 4.21. On TRF1TRFH [1], the CPMG reduction is on record as 100% and the CPMG recovery amounted to 29%. The pIC50 in data set [4] is 3.82.
As to `CCOc1ccc(S(N)(=O)=O)c2ccccc12` [Compound 33, 4-ethoxynaphthalene-1-sulfonamide], the “Kin. Sol.” value in data set [2] turned out to be 50 µM. At TRF1TRFH [1], the CPMG reduction stood at 79% and the CPMG recovery is listed as 1%.
For `CCOc1ccc(C(=O)O)c2ccccc12` [Compound 34, 4-ethoxy-1-naphthoic acid] the same measures were 895 µM, 28% and 20%.
On to `CCOc1ccc(S(=O)(=O)N(C)C)c2ccccc12` [Compound 35], for which the “Kin. Sol.” value in data set [2] is reported as less than 50 µM.
Still for that read-out and setting: the result for `CCOc1ccc(S(=O)(=O)NCc2ccccc2)c2ccccc12` [Compound 36] reads 0 µM.
As for `Cc1cccc(COc2ccc(S(=O)(=O)[O-])c3ccccc23)c1.[Na+]` [Compound 37], in data set [2], the “Kin. Sol.” value stood at 460 µM. Further, the pKd on TRF1TRFH [3] is 4.08. The pIC50 in data set [4] is 3.70.
The matching figures for `COc1cccc(COc2ccc(S(=O)(=O)[O-])c3ccccc23)c1.[Na+]` [Compound 38]: 570 µM, 4.28 and 3.82.
For `COc1ccccc1COc1ccc(S(=O)(=O)[O-])c2ccccc12.[Na+]` [Compound 39] the same measures were 320 µM, 3.96 and 3.77.
The matching figures for `CCCOc1cccc(COc2ccc(S(=O)(=O)[O-])c3ccccc23)c1.[Na+]` [Compound 41]: 590 µM, 4.34 and 4.64.
In the case of `O=S(=O)([O-])c1ccc(OCc2cccc(OC(F)(F)F)c2)c2ccccc12.[Na+]` [Compound 42], the “Kin. Sol.” value in data set [2] amounted to 260 µM. Besides, the pIC50 in data set [4] was 4.10.
In the case of `O=S(=O)([O-])c1ccc(OCc2cccc(Cl)c2)c2ccccc12.[Na+]` [Compound 43], the “Kin. Sol.” value in data set [2] amounted to 500 µM. The pKd at TRF1TRFH [3] is 3.85. The negative-log IC50 (pIC50) in data set [4] was 3.74.
For the compound `O=S(=O)([O-])c1ccc(OCc2cccc(Br)c2)c2ccccc12.[Na+]` [Compound 44], the “Kin. Sol.” value in data set [2] stood at 160 µM. Further, the negative logarithm of the IC50 (pIC50) in data set [4] is 3.96.

The record behind these values is article PMC12635197, “Discovery of first-in-class inhibitors of the TRF1:TIN2 protein:protein interaction by fragment screening” (Scientific Reports, 2025).
